According to US20220362312A1, “CANNABIDIOL-ENHANCED PROBIOTIC COMPOSITIONS AND USES THEREOF FOR TREATMENT OF INFECTIONS” (BUZZELET DEVELOPMENT AND TECHNOLOGIES LTD., priority 2019, published 2022):

Columns and labels:
[1] = system: Lactobacillus casei; experiment: Disc-diffusion agar method, antibacterial effect; conditions: for growth inhibition: Lactobacillus casei, 48 hours at 30° C.; for effect on growth: lactobacillus Casei, at the concentrations tested (0.5 μg and 2 μg)
[2] = system: Bacillus Thuringiensis; experiment: Disc-diffusion agar method, antibacterial effect; conditions: for area of inhibited bacterial growth / growth inhibition: 48 hours at 30° C.; for effect on growth: at the concentrations tested (0.5 μg and 2 μg)
[3] = system: Staphylococcus Aureus; experiment: Disc-diffusion agar method, antibacterial effect; conditions: for growth inhibition: 48 hours at 30° C.; for effect on growth: at the concentrations tested (0.5 μg and 2 μg)
[4] = system: Candida albicans; experiment: Candida albicans biofilm formation with cannabidiol and/or lactobacillus Casei, crystal violet staining; type: cell-based; conditions: as compared to Candida albicans alone (row 4); incubation 24 hours
Protocol: A study is performed to evaluate the efficacy of a composition comprising cannabidiol and lactobacillus Casei in treating or preventing an infection by pathogenic microorganisms comprising Candida albicans, via preventing biofilm formation.
RPMI medium supplemented with 1% glucose is introduced into each well of a 24-well plate.
Candida albicans contacted with cannabidiol are added to each well of row 1.
Candida albicans contacted with lactobacillus Casei are added to each well of row 2.
Candida albicans contacted with cannabidiol and lactobacillus Casei are added to each well of row 3.
Candida albicans alone are added to each well of row 4.
After incubation for 24 hours, spent medium and free-floating fungi are removed by gentle aspiration and the wells washed twice with phosphate-buffered saline (PBS, pH 7.4).
The presence of biofilm is quantified by crystal violet staining as described above for Example 3.

[5] = system: Escherichia coli; experiment: Disc-diffusion agar method, antibacterial effect; conditions: for growth inhibition: 48 hours at 30° C.; for effect on growth: at the concentrations tested (0.5 μg and 2 μg)

Row | SMILES | growth inhibition ([1]; 0.5 μg on disc) | growth inhibition ([1]; 2 μg on disc) | effect on growth [1] | area of inhibited bacterial growth ([2]; 0.5 μg on disc) | growth inhibition ([2]; 0.5 μg on disc) | area of inhibited bacterial growth ([2]; 2 μg on disc) | growth inhibition ([2]; 2 μg on disc) | effect on growth [2] | growth inhibition ([3]; 0.5 μg on disc) | growth inhibition ([3]; 2 μg on disc) | effect on growth [3] | biofilm formation [4] | growth inhibition ([5]; 0.5 μg on disc) | growth inhibition ([5]; 2 μg on disc) | effect on growth [5]
1 | C=C(C)[C@@H]1CCC(C)=C[C@H]1c1c(O)cc(CCCCC)cc1O [CBD, cannabidiol] | − | − | no effect | 2 mm | + | 3 mm | + | inhibit growth | − | − | no effect | significantly inhibited | − | − | no effect
2 | CCCCCc1cc(O)c2c(c1)OC(C)(C)[C@@H]1CCC(C)=C[C@@H]21 [THC, tetrahydrocannabiniol] | − | − | no effect | 1 mm | + | < 1 mm | + | inhibit growth | − | − | no effect |  | − | − | no effect
